The test system of assay [1] is Cell line H (CHO cells expressing recombinant antibody). The note with it: reduction/depletion of spermine in perfusion medium (0-100 μM).
The test system is the same in assay [2]. Nature of the assay: Small scale mock perfusion, % high mannose (HILIC glycan map) of the expressed recombinant glycoprotein. The assay is classed as cell-based, Chinese hamster. The protocol:
Cell lines H was used in this study. Cells were maintained in 3 L Erlenmeyer shake flasks (Corning Life Sciences, Lowell, Mass.) with 1 L working volume and cultivated under standard humidified condition at 36° C., 5% CO2, and shaken at 70 rpm in an automatic CO2 incubator (Thermo Fisher Scientific, Waltham, Mass.). Cells were sub-cultured in a selective growth media containing a 500 nM concentration of methotrexate (MTX) every four days, and subsequently transferred, inoculated and cultured in a growth media for four days before being seeded in a 24 wells plate for the experiments described below. […] Different N-glycan species of antibodies were analyzed by hydrophilic-interaction liquid chromatography (HILIC). The purified antibodies were digested by N-glycosidase F (New England BioLabs, Ipswich, Mass.) at 37° C. for 2 hours to release the glycans. The released glycans were labeled with 2-aminobenzoic acid and cleaned up using GlycoClean S cartridges (Prozyme, […], Calif.). Purified glycans were then desalted and reconstituted in water for assay. HILIC chromatography was performed with a 100 mm×2.1 mm i.d BEH Glycan column using UPLC (Waters Corporation, Milford, Mass.) and the eluted glycans were detected, identified, and qualified by a fluorescence detector based on different elution times of different glycans.

Assay [3] has the same test system. The note with it: spermine tetrahydrochloride 0, 7, 17, 35 and 100 μM; day 5 samples; FIG. 6.
Method: Samples were collected on day 5 of the mock perfusion assay. The 35 μM sample served as a control.
An arginine-free formulation of a perfusion media was used for small scale mock perfusion Experiment #3 (arginine concentration studies) according to the experimental design. In small scale mock perfusion Experiment #4 all arginase inhibitors were added to a perfusion media.
Briefly, the CHO cells were seeded in the plate at the targeted density ranging from 10-20×10^6 cells/mL with 3 mL working volume for each well. The cells were cultivated at 36° C., 5% CO2, 85% relative humidity and shaken at 225 rpm in a 50-mm orbital diameter Kuhner incubator (Kuhner AG, Basel, Switzerland) for 3 or 4 days. Every 24 hours, the cells were centrifuged at 200×g for 5 minutes (Beckman Coulter, Brea, Calif.) to collect the spent media and each well was then replenished with 3 mL of fresh media. The collected spent media were analyzed for titer, key metabolites and % high mannose (% HMN) (when necessary). Cells were then harvested and cell counts and viability were measured.
Five different concentrations of spermine were tested in this study. […] The perfusion medium containing 35 μM spermine acted as a control.
Assay [4] deals with Cell line I (expresses an IgG2 antibody). The assay is described as follows: Fed-batch 2 L bioreactor culture, % high mannose by peptide mapping glycan profiling. The assay is classed as cell-based. The note with it: single supplement of 0.1 g/L L-ornithine monohydrochloride on day 0 vs ornithine-free control; samples days 6, 8 and 12; FIG. 8.
Method: Glycan profiling was performed by peptide mapping. […] Specifically, about 50-70 μg of each antibody was denatured and reduced with 7.0 M guanidine.HCl, 6 mM dithiothreitol (DTT) in 0.2 M tris buffer (pH 7.5) at 37° C. for 30 minutes. Each denatured/reduced sample was alkylated with 14 mM iodoacetic acid at 25° C. for 25 minutes, followed by quenching the reaction by adding 8 mM DTT. […] The buffer-exchanged sample was incubated at 37° C. with 3.5 μg trypsin for 60 minutes. Digestion was quenched by adding 2.2 μL of 10% acetic acid. About 12-17 μg of digested antibody was injected for analysis.
The digested antibody was analyzed using an Agilent 1260 HPLC system directly connected to a Thermo Scientific LTQ-Orbitrap Elite mass spectrometer (Thermo Fisher Scientific Inc., Rockford, Ill.). Proteolytic peptides were separated on a Waters BEH 300 C18 column (Waters Corporation, Milford, Mass.) 2.1×150 mm, 1.7μ particle at 40° C. with a flow rate of 0.2 mL/min. Mobile phase A was 0.02% TFA in water and mobile phase B was 0.018% TFA in acetonitrile. Peptides were eluted with a gradient of 0.5-40% B in 90 minutes, followed by column washing and re-equilibration. Mass spectrometer was set up for a full MS scan in the orbitrap with 120,000 resolution followed by five data-dependent CID MS/MS scans in the linear trap with dynamic exclusion.
[5] abbreviates: first series: four arginase inhibitors at 1, 10 and 20 μM vs inhibitor-free control, FIG. 10.
[6] abbreviates: second series: BEC 0, 10 μM, 0.5 mM, DL-α 0, 10 μM, 1.0 mM, 2.0 mM in perfusion medium, FIG. 11.

Consider `Cl.Cl.Cl.Cl.NCCCNCCCCNCCCN` [spermine, spermine tetrahydrochloride], for which the Titer result in assay [1] is “not affected”. In addition, in assay [2] (spermine tetrahydrochloride 0, 7, 17, 35 (control) and 100 μM in perfusion medium, day 5 samples, FIG. 5), the “% HMN (high mannose glycoform content)” value is recorded as “as the spermine concentration was reduced, the % HMN decreased”. In assay [3], the “amount of ornithine (extracellular)” value is reported as “the amount of ornithine decreased with a decrease in spermine concentration”.
Turning to S-(2-boronoethyl)-1-cysteine [BEC], the results for the “% HM (high mannose glycoform content)” value in assay [2] (setting [5]) and in assay [2] (setting [6]) were “most effective in decreasing % HM” and “% HM was decreased as both inhibitor concentrations increased”, respectively.
Turning to `Cl.NCCC[C@H](N)C(=O)O` [ornithine, L-ornithine monohydrochloride], the “% HMN (high mannose glycoform content)” value in assay [4] was “as the ornithine concentration is increased the % HMN increased”.
In the case of `Cl.NCCC[C@](N)(C(=O)O)C(F)F` (racemic) [DL-α, DL-α, Diflouromethylornithine Hydrochloride], the results for the “% HM (high mannose glycoform content)” value in assay [2] (setting [5]) and in assay [2] (setting [6]) were “most effective in decreasing % HM” and “% HM was decreased as both inhibitor concentrations increased”, respectively.
With `Cl.N=C(N)NCCC[C@H](N)C(=O)O` [arginine, arginine monohydrochloride], the “% HM (high mannose glycoform content)” value in assay [2] (arginine 3.686, 1.843 (control), 1.38, 0.92 and 0.46 g/L in perfusion medium, FIG. 9) is listed as “as the arginine concentration is increased the % HM increased”.
